Experimental data published in patent US20200163984A1, “USE OF ISOVALERYL SPIRAMYCIN I, II AND/OR III IN MANUFACTURING MEDICAMENT FOR TREATING AND/OR PREVENTING TUMOR, AND MEDICAMENT” (SHENYANG FUYANG PHARMACEUTICAL TECHNOLOGY CO., LTD., priority 2017, published 2020).
Converted amounts (≈) assume the structure as drawn.

Legend:
[1] = test system: transplanted tumor of mouse Lewis lung cancer; assay: Transplanted tumor of mouse Lewis lung cancer; details: for Tumor Volume (mm3) (d 1) / Tumor Volume (mm3) (d30) / Relative Tumor Proliferation Rate (T/C) / Relative Tumor Volume (RTV): title prints KM mouse H22 cells; for Tumor Volume (mm3) (d30): d 30; for Body Weight (g) (d1) / Body Weight (g) (d 15): mouse, in vivo
Method: Lewis lung cancer cells were cultured in a RPMI 1640 culture medium containing 10% fetal bovine serum at 37° C. in a 5% CO2 incubator. The cells in the logarithmic growth phase were subjected to trypsinization with 0.25% trypsin, then the cells were collected to be centrifugated to remove the obtained supernatant, then were washed twice with sterile normal saline. […] The Lewis cells were adjusted to 1×10^7/mL in concentration and stored in ice water. 75% ethanol was used to disinfect the skin under the right armpits of the mice, and each C57BL/6 mouse was soon inoculated subcutaneously with 0.2 ml of the cells at its right armpit.
In the Lewis lung cancer model, the mice inoculated with the tumor were randomly divided into groups with 10 mice in each group the next day of inoculation. The groups included: a model control group, a positive drug cyclophosphamide control group (CTX, 30 mg/kg), isovaleryl spiramycin I groups with doses of 13, 26 and 52 mg/kg; isovaleryl spiramycin II groups with doses of 13, 26 and 52 mg/kg; isovaleryl spiramycin III groups with doses of 13, 26 and 52 mg/kg. Each group was continuously administered intragastrically for 15 days with a dose of 20 ml/kg.
The tumor-bearing mice were weighed and sacrificed the next day after the last administration. The subcutaneous tumors were dissected and weighed. The average tumor weight of each group is calculated, and the tumor inhibition rate is calculated.
Tumor inhibition rate=(1−T/C)×100%
T: average tumor weight of the drug-administered group; C: average tumor weight of the blank control group.

[2] = test system: human bladder cancer cell T-24; details: T-24, MTT
Source text: (§1) The purpose of the assay is to evaluate the in vitro cell proliferation inhibition or cytotoxic activity of a tested sample.
(§2) Human breast cancer cells MCF-7 and MDA-MB-231, human hepatoma cells HepG2, human non-small cell lung cancer cells A549, human large cell lung cancer cells H460 and H1299, human renal clear cell adenocarcinoma cell 786-0, human renal cell adenocarcinoma cell 769-P, human glioma cell U251, human glioblastoma cell A172, human tissue lymphoma cell U937, human cervical cancer cell HeLa, human prostate cancer cell PC3, human pancreatic cancer cell PANC-1, human esophageal cancer cell TE-1, human gastric adenocarcinoma cell SGC7901, human colon cancer cell HT-29, human promyelocytic leukemia cell HL-60, human thyroid cancer cell TPC-1, and human bladder cancer cell T-24.
(§3) The inhibition rate of the medicament on tumor cell growth is calculated according to the following formula:
(§4) Tumor cell growth inhibition rate (%)=[A492 (negative control)−A492 (dosing group)]/A492 (negative control)×100%
(§5) And the half-inhibitory concentration (IC50) of the sample is determined therefrom.

[3] = test system: human thyroid cancer cell TPC-1; details: TPC-1, MTT
Source text: as §1, §2, §3, §4, §5

[4] = test system: transplanted tumor of human prostate cancer cell PC3; assay: PC3 transplanted tumor in nude mice
Method: Then cell concentration was adjusted to 1×10^7/ml with matrigel, then each nude mouse was inoculated subcutaneously with 0.2 ml of cells at its right armpit and recorded as the first day of inoculation. When the tumor grows to be greater than or equal to 100 mm^3, the mice were randomly divided into 11 groups with 6 mice in each group: a model group, a cyclophosphamide group, isovaleryl spiramycin I groups with doses of 25, 50 and 100 mg/kg, isovaleryl spiramycin II groups with doses of 25, 50 and 100 mg/kg, and isovaleryl spiramycin III groups with doses of 25, 50 and 100 mg/kg. Each group was continuously administered intragastrically for 30 days with a dose of 20 ml/kg. The mice were sacrificed the next day after drug withdrawal and the indicators were tested. The long diameter and short diameter of the tumor, and the body weight of each mouse were recorded every 3 days from drug administration to nude mouse sacrifice.
The body weight of the nude mice and the long diameter (a) and short diameter (b) of the transplanted tumor were measured every 3 days, and the tumor volume (v), relative tumor volume (RTV) and relative tumor proliferation rate (T/C) are calculated respectively according to the following formulas, wherein V=a×b^2/2; RTV=V/V0 (V0 is the tumor volume before administration, V is the tumor volume before sacrifice), and T/C (%)=treatment group RTV/model control group RTV×100%.
Each mouse was weighed and sacrificed. After the tumor was completely stripped off from the body of the mouse, the non-tumor tissues such as blood stains and fat were removed to weigh the tumor and calculate the tumor growth inhibition rate. The average tumor weight of each group of mice is used as an indicator of efficacy. Tumor growth inhibition rate (%)=(1−the average tumor weight of the treatment group/the average tumor weight of the model group)×100%.

[5] = PC3, 25 mg/kg (low dose) i.g. 30 days
[6] = PC3, 50 mg/kg (medium dose) i.g. 30 days
[7] = PC3, 100 mg/kg (high dose) i.g. 30 days

SMILES: CCC(=O)O[C@@H]1CC(=O)O[C@H](C)C/C=C/C=C/[C@H](O[C@H]2CC[C@H](N(C)C)[C@@H](C)O2)[C@H](C)C[C@H](CC=O)[C@H](O[C@@H]2O[C@H](C)[C@@H](O[C@H]3C[C@@](C)(O)[C@@H](OC(=O)CC(C)C)[C@H](C)O3)[C@H](N(C)C)[C@H]2O)[C@H]1OC [Isovaleryl spiramycin III, isovaleryl spiramycin III]
- growth of Lewis lung cancer in mice ([1]; 13, 26 and 52 mg/kg i.g. 15 days): significantly inhibit
- Tumor Volume (mm3) (d 1) ([1]; dose 12.5 mg/kg): 105.02 ± 31.31 mm3
- Tumor Volume (mm3) (d30) ([1]; dose 12.5 mg/kg): 1270.87 ± 198.05 mm3
- Relative Tumor Proliferation Rate (T/C) ([1]; dose 12.5 mg/kg): 84.57
- Relative Tumor Volume (RTV) ([1]; dose 12.5 mg/kg): 13.54 ± 6.73
- Inhibition Rate (%) ([1]; dose 13 mg/kg): 35.46%
- Tumor Weight ([1]; dose 13 mg/kg): 1.03 ± 0.18 g
- Tumor Volume (mm3) (d 1) ([1]; dose 25 mg/kg): 103.29 ± 29.09 mm3
- Tumor Volume (mm3) (d30) ([1]; dose 25 mg/kg): 841.92 ± 385.16 mm3
- Relative Tumor Proliferation Rate (T/C) ([1]; dose 25 mg/kg): 58.38
- Relative Tumor Volume (RTV) ([1]; dose 25 mg/kg): 9.35 ± 5.89
- Inhibition Rate (%) ([1]; dose 26 mg/kg): 48.96%
- Tumor Weight ([1]; dose 26 mg/kg): 0.82 ± 0.34 g
- Tumor Volume (mm3) (d 1) ([1]; dose 50 mg/kg): 104.43 ± 23.09 mm3
- Tumor Volume (mm3) (d30) ([1]; dose 50 mg/kg): 677.35 ± 237.77 mm3
- Relative Tumor Proliferation Rate (T/C) ([1]; dose 50 mg/kg): 41.81
- Relative Tumor Volume (RTV) ([1]; dose 50 mg/kg): 6.69 ± 2.56
- Inhibition Rate (%) ([1]; dose 52 mg/kg): 57.54%
- Tumor Weight ([1]; dose 52 mg/kg): 0.68 ± 0.18 g
- Body Weight (g) (d1) ([1]; 13 mg/kg): 19.62 ± 1.30 g
- Body Weight (g) (d 15) ([1]; 13 mg/kg): 22.52 ± 0.57 g
- Body Weight (g) (d1) ([1]; 26 mg/kg): 19.58 ± 0.63 g
- Body Weight (g) (d 15) ([1]; 26 mg/kg): 22.28 ± 0.66 g
- Body Weight (g) (d1) ([1]; 52 mg/kg): 20.00 ± 0.60 g
- Body Weight (g) (d 15) ([1]; 52 mg/kg): 22.42 ± 1.66 g
- IC50 [2]: 31.23 ± 1.47 µg/mL (≈ 31.8 µM)
- IC50 [3]: 29.72 ± 4.02 µg/mL (≈ 30.2 µM)
- Inhibition Rate (tumor growth inhibition rate) [4, 5]: 25.43%
- Relative Tumor Proliferation Rate (T/C) [4, 5]: 75.75%
- Relative Tumor Volume (RTV) [4, 5]: 14.82 ± 7.55
- Tumor Volume (d 1) [4, 5]: 146.91 ± 6.70 mm3
- Tumor Volume (d 30) [4, 5]: 1914.85 ± 729.54 mm3
- Tumor Weight [4, 5]: 1.40 ± 0.54 g
- Inhibition Rate (tumor growth inhibition rate) ([4]; PC3, 25 mg/kg (low dose) i.g. 30 days, listed as isovaleryl spiramycin III): 25.44%
- Inhibition Rate (tumor growth inhibition rate) [4, 6]: 40.16%
- Relative Tumor Proliferation Rate (T/C) [4, 6]: 55.01%
- Relative Tumor Volume (RTV) [4, 6]: 10.76 ± 2.24
- Tumor Volume (d 1) [4, 6]: 187.01 ± 50.28 mm3
- Tumor Volume (d 30) [4, 6]: 1935.79 ± 228.06 mm3
- Tumor Weight [4, 6]: 1.12 ± 0.45 g
- Relative Tumor Proliferation Rate (T/C) ([4]; PC3, 50 mg/kg (medium dose) i.g. 30 days, listed as isovaleryl spiramycin III): 55.02%
- Inhibition Rate (tumor growth inhibition rate) [4, 7]: 60.37%
- Relative Tumor Proliferation Rate (T/C) [4, 7]: 34.57%
- Relative Tumor Volume (RTV) [4, 7]: 6.76 ± 1.61
- Tumor Volume (d 1) [4, 7]: 155.11 ± 7.98 mm3
- Tumor Volume (d 30) [4, 7]: 1051.03 ± 272.23 mm3
- Tumor Weight [4, 7]: 0.75 ± 0.25 g
- tumor volume and relative tumor volume compared with the model group ([4]; PC3, low, medium and high doses, P<0.05): significantly lower
- mouse weight compared with the model group ([4]; mouse, in vivo): no significant changes
